This assay deals with A549. The experiment in a line: A549 assay: screening of cancer cell growth inhibiting compound. It counts as cell-based. Particulars: Homo sapiens. The procedure: Screening of Cancer Cell Growth Inhibiting Compound
A cell suspension solution (RERF-LC-AI, A549: 1×10^4/ml, MRC5: 3×10^4/ml and 1×10^5/ml) adjusted to an appropriate concentration with D-MEM (hereinafter, referred to as a culture solution and manufactured by Nacalai Tesque Inc.) supplemented with 10% FBS (HyClone) was added to the wells of a 96-well plate (hereinafter, well plate) at a rate of 100 μL/well and incubated in a CO2 incubator at 37° C. for a day. […] Next, cells were added to each well of the well plate prepared and the above compound dilution solution was added at a rate of 100 μL/well to obtain 200 μL/well. Thereafter, the cells were incubated in the CO2 incubator at 37° C. for further three days. To each well of the well plate, 10 μL of a WST-8 kit (Kishida Chemical Co., Ltd.) solution for counting the number of cells was added and a color reaction was performed in the CO2 incubator for 1 to 4 hours. After the absorbance at 450 nm (reference wavelength: 620 nm) was measured by a microplate reader, suppressing action of the test substance was calculated based on the absorbance value in the absence of a test substance.

The mark [1] stands for this setting: A549, 72 h, read-out: A549 IC50 (μM).
The mark [2] stands for this setting: 72 h, A549 cells, three days, WST-8, read-out: A549 IC50.

Like-named read-outs stand apart in the source and are kept apart here.

The IC50 is the concentration that inhibits the measured activity by half.

As to `O=C(NC1CC1)c1ccc(-c2cnc3c(NCC4CCOCC4)nccn23)cc1` [Example 1-1, N-cyclopropyl-4-(8-((tetrahydro-2H-pyran-4-yl)methylamino)imidazo[1,2-a]pyrazin-3-yl)benzamide], the IC50 under setting [1] was in the range of 1 to 10 µM.

Consider `O=C(NC1CC1)c1ccc(-c2cnc3c(NCC4CC4)nccn23)cc1` [Example 1-36], for which the IC50 under setting [1] lay within 1 to 10 µM.

In the case of `CCCNc1nccn2c(-c3ccc(C(=O)NC4CC4)cc3)cnc12` [Example 1-37], under setting [1], the IC50 was in the range of 1 to 10 µM.

Take `CC(C)CCNc1nccn2c(-c3ccc(C(=O)NC4CC4)cc3)cnc12` [Example 1-43]: the IC50 under setting [1] lay in the range of 1 to 10 µM.

Take `CC(C)CNc1nc(-c2ccccc2)cn2c(-c3ccc(C(=O)NC4CC4)cc3)cnc12` [Example 1-101]: the IC50 under setting [1] was 0.5 to 1 µM.

As for `CC(C)CNc1nc(-c2ccsc2)cn2c(-c3ccc(C(=O)NC4CC4)cc3)cnc12` [Example 1-103], under setting [2], the IC50 was in the range of 0.5 to 1 µM.

In the case of `CC(C)CNc1nc(-c2cccc(C#N)c2)cn2c(-c3ccc(C(=O)NC4CC4)cc3)cnc12` [Example 1-106], under setting [2], the IC50 fell in the range of 0.5 to 1 µM.

In the case of `CC(C)CNc1nc(-c2cccnc2)cn2c(-c3ccc(C(=O)NC4CC4)cc3)cnc12` [Example 1-107], under setting [2], the IC50 was in the range of 0.5 to 1 µM.

For `CC(C)CNc1nc(C2=CCCC2)cn2c(-c3ccc(C(=O)NC4CC4)cc3)cnc12` [Example 1-108], the IC50 under setting [2] was 1 to 10 µM.

In the case of `CC(C)CNc1nc(-c2ccc3occc(=O)c3c2)cn2c(-c3ccc(C(=O)NC4CC4)cc3)cnc12` [Example 1-110], the IC50 under setting [2] was 0.5 to 1 µM.

On to `CC(C)CNc1nc(-c2ccncc2)cn2c(-c3ccc(C(=O)NC4CC4)cc3)cnc12` [Example 1-111], for which the IC50 under setting [2] was 0.05 to 0.5 µM.

`CC(C)CNc1nc(-c2ccc(N)cc2)cn2c(-c3ccc(C(=O)NC4CC4)cc3)cnc12` [Example 1-114]: the IC50 under setting [2] lay in the range of 0.05 to 0.5 µM.

Take `CC(C)CNc1nc(-c2ccc(S(=O)(=O)N3CCCC3)cc2)cn2c(-c3ccc(C(=O)NC4CC4)cc3)cnc12` [Example 1-115]: the IC50 under setting [2] was 1 to 10 µM.

Take `CC(C)CNc1nc(-c2ccc(S(=O)(=O)C(C)C)cc2)cn2c(-c3ccc(C(=O)NC4CC4)cc3)cnc12` [Example 1-116]: the IC50 under setting [2] is 0.5 to 1 µM.

`CC(C)CNc1nc(-c2ccc(OCCN3CCOCC3)cc2)cn2c(-c3ccc(C(=O)NC4CC4)cc3)cnc12` [Example 1-117]: the IC50 under setting [2] fell in the range of 1 to 10 µM.

Turning to `CC(C)CNc1nc(-c2ccc(NC(=O)NCc3ccco3)cc2)cn2c(-c3ccc(C(=O)NC4CC4)cc3)cnc12` [Example 1-118], under setting [2], the IC50 was in the range of 0.5 to 1 µM.

Take `CC(C)CNc1nc(-c2ccc(CNS(C)(=O)=O)cc2)cn2c(-c3ccc(C(=O)NC4CC4)cc3)cnc12` [Example 1-119]: the IC50 under setting [2] fell in the range of 0.5 to 1 µM.

For `CC(C)CNc1nc(-c2ccc(O)c(Cl)c2)cn2c(-c3ccc(C(=O)NC4CC4)cc3)cnc12` [Example 1-120], the IC50 under setting [2] lay within 1 to 10 µM.

On to `CC(C)CNc1nc(-c2ccc(NC(=O)N3CCCC3)cc2)cn2c(-c3ccc(C(=O)NC4CC4)cc3)cnc12` [Example 1-121], for which the IC50 under setting [2] fell in the range of 0.5 to 1 µM.

For the compound `CC(C)CNc1nc(-c2cccc(C(=O)NCCCN(C)C)c2)cn2c(-c3ccc(C(=O)NC4CC4)cc3)cnc12` [Example 1-122], the IC50 under setting [2] was 1 to 10 µM.

For `CC(C)CNc1nc(-c2ccccc2N)cn2c(-c3ccc(C(=O)NC4CC4)cc3)cnc12` [Example 1-123], the half-maximal inhibitory concentration (IC50) under setting [2] lay in the range of 0.05 to 0.5 µM.

As for `CC(C)CNc1nc(-c2cccc(N)c2)cn2c(-c3ccc(C(=O)NC4CC4)cc3)cnc12` [Example 1-124], under setting [2], the IC50 was 0.5 to 1 µM.

For `CC(C)CNc1nc(-c2ccc(C(=O)c3ccccc3)cc2)cn2c(-c3ccc(C(=O)NC4CC4)cc3)cnc12` [Example 1-125], the IC50 under setting [2] was in the range of 1 to 10 µM.

With `CC(C)CNc1nc(-c2cccc(CN3CCOCC3)c2)cn2c(-c3ccc(C(=O)NC4CC4)cc3)cnc12` [Example 1-127], the half-inhibitory concentration (IC50) under setting [2] was in the range of 1 to 10 µM.

In the case of `CC(C)CNc1nc(-c2cccc(C(=O)NCCCN3CCN(C)CC3)c2)cn2c(-c3ccc(C(=O)NC4CC4)cc3)cnc12` [Example 1-138], the IC50 under setting [2] was 1 to 10 µM.

For `CC(C)CNc1nc(-c2cccc(C(=O)NCCN3CCOCC3)c2)cn2c(-c3ccc(C(=O)NC4CC4)cc3)cnc12` [Example 1-139], the IC50 under setting [2] is 0.5 to 1 µM.

On to `COCCNC(=O)c1cccc(-c2cn3c(-c4ccc(C(=O)NC5CC5)cc4)cnc3c(NCC(C)C)n2)c1` [Example 1-140], for which the IC50 under setting [2] lay within 0.05 to 0.5 µM.

For `CC(C)CNc1nc(-c2cccc(C(=O)NCCS(C)(=O)=O)c2)cn2c(-c3ccc(C(=O)NC4CC4)cc3)cnc12` [Example 1-141], the IC50 under setting [2] is 1 to 10 µM.

For the compound `CC(C)CNc1nc(-c2cccc(C(N)=O)c2)cn2c(-c3ccc(C(=O)NC4CC4)cc3)cnc12` [Example 1-143], the IC50 under setting [2] lay in the range of 0.5 to 1 µM.

In the case of `CC(C)CNc1nc(-c2cccc(C(=O)N3CCN(C)CC3)c2)cn2c(-c3ccc(C(=O)NC4CC4)cc3)cnc12` [Example 1-144], the IC50 under setting [2] lay in the range of 1 to 10 µM.

As to `CC(C)CNc1nc(-c2ccc(C(=O)NCCN3CCOCC3)cc2)cn2c(-c3ccc(C(=O)NC4CC4)cc3)cnc12` [Example 1-147], under setting [2], the IC50 was in the range of 1 to 10 µM.

Regarding `COCCNC(=O)c1ccc(-c2cn3c(-c4ccc(C(=O)NC5CC5)cc4)cnc3c(NCC(C)C)n2)cc1` [Example 1-148], the IC50 under setting [2] was 0.5 to 1 µM.

Take `CC(C)CNc1nc(-c2ccc(C(=O)NCCS(C)(=O)=O)cc2)cn2c(-c3ccc(C(=O)NC4CC4)cc3)cnc12` [Example 1-149]: the IC50 under setting [2] was 1 to 10 µM.

Take `CC(C)CNc1nc(-c2ccc(C(N)=O)cc2)cn2c(-c3ccc(C(=O)NC4CC4)cc3)cnc12` [Example 1-151]: under setting [2], the IC50 fell in the range of 0.05 to 0.5 µM.

Turning to `CC(C)CNc1nc(-c2ccc(C(=O)N3CCOCC3)cc2)cn2c(-c3ccc(C(=O)NC4CC4)cc3)cnc12` [Example 1-153], the IC50 under setting [2] is 1 to 10 µM.

On to `CC(C)CNc1nc(-c2cccc(NC(=O)N3CCN(C)CC3)c2)cn2c(-c3ccc(C(=O)NC4CC4)cc3)cnc12` [Example 1-154], for which the IC50 under setting [2] was 1 to 10 µM.

For the compound `CC(C)CNc1nc(-c2cccc(NC(=O)N3CCOCC3)c2)cn2c(-c3ccc(C(=O)NC4CC4)cc3)cnc12` [Example 1-155], the IC50 under setting [2] is 1 to 10 µM.

On to `COCC(=O)Nc1cccc(-c2cn3c(-c4ccc(C(=O)NC5CC5)cc4)cnc3c(NCC(C)C)n2)c1` [Example 1-156], for which, under setting [2], the IC50 was 0.5 to 1 µM.

Turning to `CC(=O)Nc1cccc(-c2cn3c(-c4ccc(C(=O)NC5CC5)cc4)cnc3c(NCC(C)C)n2)c1` [Example 1-157], under setting [2], the IC50 is 0.5 to 1 µM.

As to `CC(C)CNc1nc(-c2cccc(NC(=O)CCCN3CCOCC3)c2)cn2c(-c3ccc(C(=O)NC4CC4)cc3)cnc12` [Example 1-158], under setting [2], the IC50 lay in the range of 0.5 to 1 µM.

For the compound `CC(C)CNc1nc(-c2cccc(NC(=O)[C@@H](N)CO)c2)cn2c(-c3ccc(C(=O)NC4CC4)cc3)cnc12` [Example 1-159], the IC50 under setting [2] is 1 to 10 µM.

On to `CC(C)CNc1nc(-c2ccc(NC(=O)N3CCN(C)CC3)cc2)cn2c(-c3ccc(C(=O)NC4CC4)cc3)cnc12` [Example 1-160], for which the IC50 under setting [2] is 1 to 10 µM.

Turning to `CC(C)CNc1nc(-c2ccc(NC(=O)N3CCOCC3)cc2)cn2c(-c3ccc(C(=O)NC4CC4)cc3)cnc12` [Example 1-161], under setting [2], the IC50 lay within 1 to 10 µM.

For `COCC(=O)Nc1ccc(-c2cn3c(-c4ccc(C(=O)NC5CC5)cc4)cnc3c(NCC(C)C)n2)cc1` [Example 1-162], the IC50 under setting [2] fell in the range of 1 to 10 µM.

With `CC(=O)Nc1ccc(-c2cn3c(-c4ccc(C(=O)NC5CC5)cc4)cnc3c(NCC(C)C)n2)cc1` [Example 1-163], the IC50 under setting [2] fell in the range of 0.5 to 1 µM.

In the case of `CC(C)CNc1nc(-c2cccc(NCCCN)c2)cn2c(-c3ccc(C(=O)NC4CC4)cc3)cnc12` [Example 1-166], under setting [2], the IC50 is 1 to 10 µM.

As to `CC(C)CNc1nc(-c2cccc(NC3CCOCC3)c2)cn2c(-c3ccc(C(=O)NC4CC4)cc3)cnc12` [Example 1-167], the half-maximal inhibitory concentration (IC50) under setting [2] lay within 0.5 to 1 µM.

Consider `CC(C)CNc1nc(-c2cccc(NCC3CCN(C)CC3)c2)cn2c(-c3ccc(C(=O)NC4CC4)cc3)cnc12` [Example 1-168], for which the IC50 under setting [2] fell in the range of 0.5 to 1 µM.

In the case of `CC(C)CNc1nc(-c2ccc(NCCCN)cc2)cn2c(-c3ccc(C(=O)NC4CC4)cc3)cnc12` [Example 1-169], the IC50 under setting [2] was 1 to 10 µM.

Consider `CC(C)CNc1nc(-c2ccc(NC3CCOCC3)cc2)cn2c(-c3ccc(C(=O)NC4CC4)cc3)cnc12` [Example 1-170], for which, under setting [2], the IC50 was 1 to 10 µM.

Take `CC(C)CNc1nc(CCc2ccc(C(=O)O)cc2)cn2c(-c3ccc(C(=O)NC4CC4)cc3)cnc12` [Example 1-175]: under setting [2], the IC50 is 0.05 to 0.5 µM.

Take `O=C(NC1CC1)c1ccc(-c2cnc3c(NCC4CCOCC4)nc(-c4ccsc4)cn23)cc1` [Example 1-177]: the IC50 under setting [2] is 0.05 to 0.5 µM.

Consider `O=C(NC1CC1)c1ccc(-c2cnc3c(NCC4CCOCC4)nc(-c4ccncc4)cn23)cc1` [Example 1-179], for which, under setting [2], the IC50 was in the range of 0.05 to 0.5 µM.

With `C/C=C/c1cn2c(-c3ccc(C(=O)NC4CC4)cc3)cnc2c(NCC2CCOCC2)n1` [Example 1-243], the IC50 under setting [2] was in the range of 0.5 to 1 µM.

As to `N#Cc1ccc(-c2cn3c(-c4ccc(C(=O)NC5CC5)cc4)cnc3c(NCC3CCOCC3)n2)cn1` [Example 1-244], under setting [2], the IC50 was in the range of 0.05 to 0.5 µM.

`N#Cc1ccc(-c2cn3c(-c4ccc(C(=O)NC5CC5)cc4)cnc3c(NCC3CCOCC3)n2)c(N)c1` [Example 1-245]: the IC50 under setting [2] was 0.05 to 0.5 µM.

On to `N#Cc1ccc(-c2cn3c(-c4ccc(C(=O)NC5CC5)cc4)cnc3c(NCC3CCOCC3)n2)cc1F` [Example 1-246], for which, under setting [2], the IC50 is 0.05 to 0.5 µM.

On to `O=C(NC1CC1)c1ccc(-c2cnc3c(NCC4CCOCC4)nc(C4=CCNCC4)cn23)cc1` [Example 1-247], for which the half-maximal inhibitory concentration (IC50) under setting [2] lay in the range of 1 to 10 µM.

These data come from patent US20120059162A1, “FUSED IMIDAZOLE DERIVATIVE HAVING TTK INHIBITORY ACTION” (Oncotherapy Science, Inc., priority 2009, published 2012).
